Measured values published in US10647680B2, “Urea compound, preparation method therefor and medical use thereof” (Ancureall Pharmaceutical (Shanghai) Co., Ltd., priority 2016, dated 2020).
Structures can show the parent of a compound that is named as a salt.

Legend:
Solubility test = type: physicochemical; conditions: in water at 25° C.±2° C.
Method in brief: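 Fine powder added to water at 25° C.±2° C., shaken vigorously 30 s every 5 min for 30 min; dissolution judged by absence of visible particles. Classed by water volume per 1 g: 1-10 ml readily soluble, 10-30 soluble, 30-100 slightly, 100-1,000 sparingly, not dissolved in 10,000 ml insoluble.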

[1] = Stability test: high humidity test (90%); type: physicochemical; conditions: 25° C., relative humidity 90%±5%, 10 days, HPLC
Protocol: The test samples were placed into an integrated drug stability test chamber (YSEI) in an exposed way at 25° C. and relative humidity of 90%±5% for 10 days. Samples were taken on the 5th and 10th days and tested according to the drug stability test indices.
(§1) An appropriate amount of test samples was taken and dissolved in acetonitrile-water (1:1), and quantitatively diluted to a solution of about 0.3 mg/ml. 20 ul of solution was injected into a liquid chromatograph (Agilent 1260 Infinity), the chromatogram was then recorded and calculated according to the percentage area method. The mobile phase was a phosphate buffer and acetonitrile aqueous solution, and then a gradient elution was carried out.

[2] = Stability test: intense light test (4500LX); type: physicochemical; conditions: 4500LX±500LX light for 10 days, HPLC
Protocol: The test samples were placed into an integrated drug stability test chamber (YSEI) in an exposed way under 4500LX±500LX light for 10 days. Samples were taken on the 5th and 10th days and tested according to the drug stability test indices.
as §1

[3] = Stability test: high temperature test (60° C.); type: physicochemical; conditions: exposed at 60° C. for 10 days, HPLC
Protocol: The test samples were placed into an integrated drug stability test chamber (YSEI) in an exposed way at 60° C. for 10 days. Samples were taken on the 5th and 10th days and tested according to the drug stability test indices.
as §1

[4] = system: MV4-11 cell Bab/c nude mouse tumor model; test: In vivo tumor growth inhibition experiment; conditions: Dose 2.5 mg/kg
Protocol: Xenotransplantation in immunodeficient mice is an effective model for testing in vivo antitumor activity of compounds in animals. Bab/c immunodeficient mice are one of the most commonly used tumor cell xenografts. […] Log-phase MV4-11 cells were collected in a 50 ml of centrifuge tube (Corning), centrifuged at 1,700 rpm for 3 minutes, and the supernatant was discarded. Cells were suspended in a 50 ml 1×RPMI 1640 serum-free medium, and centrifuged, the supernatant was discarded and resuspension was performed. The cells were counted (Countess® Automated Cell Counting Apparatus, Invitrogen), prepared into […], placed on ice, and inoculated subcutaneously with 10×10^6 (0.2 ml) to the right back of 6-8-week female Bab/c nude mice (about 20 g in weight) (purchased from Shanghai Sippr-BK Experimental Animal Co., Ltd., Animal Center of Shanghai University of Traditional Chinese Medicine, approved by Ethical Committee of Shanghai University of Traditional Chinese Medicine). When the tumor grew to a size of 100-200 mm^3, animals were randomly grouped and earmarked and weighed. The treatment group consisted of 3 to 6 nude mice in each group. Drugs were prepared into different concentrations of milky suspension with a solvent PTP solution (30% polyethylene glycol 400, 0.5% Tween-80, 2.5% propylene glycol). Animals were given by oral gavage continuously at a concentration of 0.1 ml/10 g body weight, with a dose range of 0.1-200 mg/kg (the purity of the test compound of the present invention was 99% or more, and the proportion of single impurity was not more than 0.1%). In the control group, 3 to 6 nude mice in each group were given the same volume (0.1 ml/10 g body weight) of solvent PTP solution, and the tumors were measured 3 to 4 times per week. When the average tumor volume in the control group reached 1500 mm^3, or on the 28th day of administration, the experiment ended, then the tumor was weighed and subjected to molecular pathology assay.
The tumor volume was calculated as V=½a×b^2, where a is the length and b is the width. The relative tumor volume (RTV) was calculated based on the measured results and the formula was RTV=Vt/V0, where V0 is the measured tumor volume when administered in divided cages (i.e., do), and Vt is the tumor volume at each measurement.

Structure (SMILES) | Solubility (Solubility test; listed as 89 Free base) | High Humidity (90%) [1] | Lighting (4500 LX) [2] | High temperature (60° C.) [3] | Tumor Inhibition Rate (%) ([4]; Day 6) | Tumor Inhibition Rate (%) ([4]; Day 10) | Tumor Inhibition Rate (%) ([4]; Day 15) | Tumor Inhibition Rate (%) ([4]; Day 20) | Solubility (Solubility test; listed as 77 Mesylate)
CC(C)(C)c1cc(NC(=O)Nc2ccc(-n3cnc4cc(OCCN5CCOCC5)ccc43)cc2)[nH]n1 [Compound 89, 1-(5-tert-butyl-2H-pyrazol-3-yl)-3-{4-[5-(2-morpholin-4-yl-ethoxyl)-benzimidazol-1-yl]-phenyl}-urea] | insoluble (“nearly insoluble or insoluble” means that 1 g of the test sample could not be completely dissolved in 10,000 ml of water) | stable | stable | stable | 60.7 | 79.4 | 84.7 | 87.2 | –
COCCOc1ccc2c(c1)ncn2-c1ccc(NC(=O)Nc2cc(C(C)(C)C)n[nH]2)cc1 [Compound 77 Mesylate, 1-(5-tert-butyl-2H-pyrazol-3-yl)-3-{4-[5-(2-methoxyl-ethoxyl)-benzimidazol-1-yl]-phenyl}-urea] | – | stable | stable | stable | – | – | – | – | soluble (“soluble” means that 1 g of the test sample could be dissolved in 10-30 ml of water)
